Laboratory results reported in ChEMBL document CHEMBL1146539, “Homopseudopteroxazole, a new antimycobacterial diterpene alkaloid from Pseudopterogorgia elisabethae” (2003).
≈ marks a conversion by molar mass, not a printed value.

Test system: Mycobacterium tuberculosis
Experiment: Antimycobacterial activity against Mycobacterium tuberculosis H37Rv
Format: functional
Conditions: for MIC: Mycobacterium tuberculosis, H37Rv

Row | SMILES | inhibition (INH) [%] | MIC [µg/mL]
1 | CC(C)=C[C@@H]1C[C@H](C)[C@H]2CC[C@H](C)c3c2c1c(C)c1ncoc31 [PSEUDOPTEROXAZOLE] | 97 | 12.5 (≈ 40.4 µM)
2 | CCCCCc1nc2c(C)c3c4c(c2o1)[C@@H](C)CC[C@@H]4[C@@H](C)C[C@H]3C=C(C)C [HOMOPSEUDOPTEROXAZOLE] | 80 | 12.5 (≈ 32.9 µM)
3 | CC(C)=CCC[C@H](C)[C@H]1CC[C@H](C)c2c1cc(C)c1ncoc21 | 66 | 12.5 (≈ 40.1 µM)
